Source: patent US20200149049A1, “METHODS AND COMPOSITIONS RELATING TO ANTI-CALCIFICATION” (THE BRIGHAM AND WOMEN'S HOSPITAL, INC., priority 2017, published 2020)
“Also recorded” adds a separate entry of the source.

Experiments:
Type in all cases: cell-based, human
hCASMCs [1] = assay: Mineralization assay (Alizarin Red staining, calcium deposition); settings: hCASMCs in osteogenic medium with siRNA, Day 21
Experimental: (§1) FIGS. 22A-22C depict the effects of the SORT1, AASS, CROT, IL1R1, ITGBL1, METTL7A and NNMT silencing on calcium deposition and TNAP activity in hCASMCs. HCASMCs were treated with siRNAs in NM. After 3 days, the medium was changed to OM with the siRNA. On Day 21, cells were fixed in 4% formalin for 10 min and washed twice with PBS for Alizarin Red staining. The cells were stained with 2% Alizarin Red solution for 20 min at RT and rinsed twice with water (FIG. 22A). Then, the Alizarin Red was extracted by 10 mM cetylpyridinium chloride and the extracts were measured on the absorbance (540 nm) (FIG. 22B). On Day 14, TNAP activity was determined using Alkaline Phosphatase Activity Colorimetric Assay Kit (FIG. 22C).
(§2) FIGS. 23A-23C depict teffects of the CROT silencing on calcium deposition and TNAP activity in hCASMCs. HCASMCs were treated with siRNAs in NM. […] Then, the Alizarin Red was extracted by 10 mM cetylpyridinium chloride and the extracts were measured on the absorbance (540 nm) (FIG. 23B). On Day 14, TNAP activity was determined using Alkaline Phosphatase Activity Colorimetric Assay Kit (FIG. 23C). **: P<0.01, ***: P <0.001 (vs. OM-siControl, Student's t-test, N=3-4). […]
Mineralization assay and activity of tissue non-specific alkaline phosphatase. Mineralized matrix formation was assessed by Alizarin Red staining. […] Aliquots were taken and measured with a spectrophotometer at 540 nm.

TNAP activity in hCASMCs = assay: Tissue non-specific alkaline phosphatase (TNAP) activity in cell cultures; settings: hCASMCs in osteogenic medium with siRNA; Day 14
Experimental: as §1
as §2, with “NM. After 3 days, the medium was changed to OM with the siRNA.” for “NM.”
Tissue non-specific alkaline phosphatase (TNAP) activity was measured in cell cultures using the Alkaline Phosphatase Activity Colorimetric Assay Kit (BioVision). […]

hCASMCs [2] = assay: Gene expression assay (TaqMan real-time PCR) in hCASMCs
Experimental: FIG. 32 depicts graphs of the effects of PPAR agonists on gene expressions in hCASMCs. HCASMCs were maintained under the same condition with FIG. 23A-23C. Next day after cell seeding, medium was changed to 1% FCS DMEM. After 24 hours, hCASMCs were stimulated by 100 nM K-877 (K877), 100 nM GW-501516 (GW) and 100 nM rosiglitazone (Rosi). After 18 hours, the mRNA samples were isolated by TRIzol Reagent.
FIGS. 33A-33D depict the effects of CROT silencing on CDNK1A (FIG. 33A), DUSP1 (FIG. 33B), HMOX1 (FIG. 33C) and SAT1 (FIG. 33D) gene expression in hCASMCs. HCASMCs were maintained under the same condition with FIGS. 23A-23C. The mRNA samples from hCASMCs were isolated using TRIzol Reagent on Day 7. *: P<0.05, **: P<0.01 (vs. NM-siCont or OM-siCont, Student's t-test, N=3).
HCASMCs were maintained under the same condition with FIGS. 23A-23C. BMP7 was not detected. The mRNA samples from hCASMCs were isolated using TRIzol Reagent on Day 7. *: P<0.05 (vs. OM-siCont, Student's t-test, N=3).
FIG. 35 depicts the effects of PPAR agonists GW-501516 on SLC20A1 gene expression in hCASMCs. HCASMCs were maintained under the same condition with FIGS. 23A-23C. HCASMCs were stimulated by 100 nM GW-501516 (GW). After 18 hours, the mRNA samples were isolated by TRIzol Reagent. **: P<0.01, (vs. Control, Student's t-test, N=3).
RNA preparation and real-time PCR. Total RNA from the cell culture was isolated using TRIZol (Life Technologies). Reverse transcription was performed using the QuantiTect Reverse Transcription Kit (Qiagen). The mRNA expression was determined by TaqMan-based real-time PCR reactions (Life Technologies). The following TaqMan probes were used: 4326315E (human β-actin), (human SLC20A1), (human BMP2), (human BMP4), (human BMP7). The expression levels were normalized to β-actin. Results were calculated using the […] method, and presented as fold increase relative to control.

For “siCROT: siRNA silencing CROT; patent names inhibitory nucleic acid CACUUCAGCUGGCCUAUUA (SEQ ID NO: 1) as CROT inhibitor (listed as RNA, chemistry not given here)”, the Ca deposition (hCASMCs [1]) was “decreased”, the TNAP activity (TNAP activity in hCASMCs) was “decreased” and the HMOX1 expression (hCASMCs [2]; CROT siRNA, Day 7) was “induced”.
In the case of `Cc1cc(SCc2sc(-c3ccc(C(F)(F)F)cc3)nc2C)ccc1OCC(=O)O` [PPARδ agonist, GW-501516], the SLC20A1 gene expression (hCASMCs [2]; PPARδ agonist, after 24 h) was “suppressed; also recorded: reduced”, the CDKN1A gene expression (hCASMCs [2]; response to PPARδ agonist) was “affected” and the DUSP1 gene expression (hCASMCs [2]; response to PPARδ agonist) was “affected”. For the same compound, the HMOX1 gene expression (hCASMCs [2]; response to PPARδ agonist) was “affected” and the SAT1 gene expression (hCASMCs [2]; response to PPARδ agonist) was “affected”.
